In patent publication US20020137929A1, “1 - (3-heterocyclylphenyl) isothiourea, -isourea, -guanidine and -amidine herbicidal agents” (Intellectual Property Department, BASF Aktiengesellschaft, priority 1998, published 2002):

Key:
[1] = system: ECHORC (Watergrass (Calif.)); experiment: Postemergence weed control under flooded paddy conditions; assay type: in vivo, Echinochloa oryzoides; settings: postemergence weeds, rated 3 to 4 weeks after treatment
Summary of the method: (§1)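 Herbicidal effect is judged by eye on a 0–9 scale versus control, 3–4 weeks after dosing. Dosing is into flood water kept 1.5–3 cm over the soil, at about 0.0313–0.500 kg/ha in aqueous/acetone 50/50 v/v, on 3–5 cm weeds and 1.5–2.5-leaf rice seedlings.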

SETVI (Foxtail, Green) = experiment: Preemergence herbicidal evaluation; assay type: in vivo, Setaria viridis; settings: rated 4-5 weeks after treatment
Summary of the method: (§2)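 Visual 0-9 rating vs control (stand, vigor, malformation, size, chlorosis, overall appearance), scored 4-5 wk after spraying. Seeded soil cups were treated preemergence with compound in aqueous acetone, ~0.0156-0.500 kg/ha equivalent.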

ECHCG (Barnyardgrass) = experiment: Preemergence herbicidal evaluation; assay type: in vivo, Echinochloa crus-galli; settings: rated 4-5 weeks after treatment
Summary of the method: as §2

[2] = system: ECHORC (Watergrass (Calif.)); experiment: Preemergence weed control under flooded paddy conditions; assay type: in vivo, Echinochloa oryzoides; settings: rated 3-4 weeks after treatment
Summary of the method: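 Herbicidal effect is scored visually on a 0-9 scale against an untreated control, three to four weeks after compounds are pipetted into the flood water (1.5 to 3 cm deep) over seeds planted in silt loam at 0.5 cm depth. Rates: about 0.0313 to 0.500 kg/ha.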

[3] = system: TRZAWR (Wheat, Winter, cv Riband); experiment: Postemergence herbicidal evaluation; assay type: in vivo, Triticum aestivum; settings: postemergence
Summary of the method: (§3)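 Each compound, dispersed in an acetone/water mix (50/50) carrying 0.5% TWEEN 20, is nozzle-sprayed at 40 psi on approximately two-week-old seedlings at about 0.0156–0.500 kg/ha. Plants are assessed 4–5 weeks afterward on a 0–9 scale relative to control; duplicate tests are averaged.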

ORYSAT (Rice, Tebonnet) = experiment: Preemergence herbicidal evaluation; assay type: in vivo, Oryza sativa, (L.) Tebonnet; settings: rated 4-5 weeks after treatment
Summary of the method: as §2

[4] = system: IPOHE (Morningglory, Ivyleaf); experiment: Postemergence herbicidal evaluation; assay type: in vivo, Ipomoea hederacea; settings: postemergence
Summary of the method: as §3

CYPIR (Rice Flatsedge) = experiment: Postemergence weed control under flooded paddy conditions; assay type: in vivo, Cyperus iria; settings: postemergence weeds, rated 3 to 4 weeks after treatment
Summary of the method: as §1

ABUTH (Velvetleaf) = experiment: Postemergence herbicidal evaluation; assay type: in vivo, Abutilon theophrasti; settings: postemergence
Summary of the method: as §3

[5] = system: CHEAL (Lambsquarters, Common); experiment: Preemergence herbicidal evaluation; assay type: in vivo, Chenopodium album; settings: rated 4-5 weeks after treatment
Summary of the method: as §2

[6] = system: TRZAWR (Wheat, Winter, cv Riband); experiment: Preemergence herbicidal evaluation; assay type: in vivo, Triticum aestivum; settings: rated 4-5 weeks after treatment
Summary of the method: as §2

[7] = system: IPOHE (Morningglory, Ivyleaf); experiment: Preemergence herbicidal evaluation; assay type: in vivo, Ipomoea hederacea; settings: rated 4-5 weeks after treatment
Summary of the method: as §2

COC(=O)[C@H](Cc1ccccc1)N1C(=O)CS/C1=N/c1cc(-n2c(=O)cc(C(F)(F)F)n(C)c2=O)c(F)cc1Cl [Compound 72, Methyl α-benzyl-2-{{2-chloro-5-[3,6-dihydro-3-methyl-2,6-dioxo-4-(trifluoromethyl)-1(2H)-pyrimidinyl]-4-fluorophenyl]imino}-4-oxo-3-thiazolidineacetate, L-]
Herbicidal rating ECHORC ([1]; Rate 0.0313 kg/ha): 9.0 | Herbicidal rating ECHORC ([1]; Rate 0.0625 kg/ha): 9.0 | Herbicidal rating ECHORC ([1]; Rate 0.1250 kg/ha): 9.0 | Herbicidal rating ECHORC ([1]; Rate 0.2500 kg/ha): 9.0 | Preemergence herbicidal rating SETVI (SETVI (Foxtail, Green); rate 0.0156 kg/ha): 0.0 | Preemergence herbicidal rating SETVI (SETVI (Foxtail, Green); rate 0.0313 kg/ha): 0.0 | Preemergence herbicidal rating SETVI (SETVI (Foxtail, Green); rate 0.0625 kg/ha): 0.0 | Preemergence herbicidal rating SETVI (SETVI (Foxtail, Green); rate 0.1250 kg/ha): 9.0 | Preemergence herbicidal rating SETVI (SETVI (Foxtail, Green); rate 0.2500 kg/ha): 9.0 | Preemergence herbicidal rating ECHCG (ECHCG (Barnyardgrass); rate 0.0156 kg/ha): 0.0 | Preemergence herbicidal rating ECHCG (ECHCG (Barnyardgrass); rate 0.0313 kg/ha): 0.0 | Preemergence herbicidal rating ECHCG (ECHCG (Barnyardgrass); rate 0.0625 kg/ha): 0.0 | Preemergence herbicidal rating ECHCG (ECHCG (Barnyardgrass); rate 0.1250 kg/ha): 0.0 | Preemergence herbicidal rating ECHCG (ECHCG (Barnyardgrass); rate 0.2500 kg/ha): 3.0 | ECHORC herbicidal effect rating ([2]; 0.0313 kg/ha): 9.0 | ECHORC herbicidal effect rating ([2]; 0.0625 kg/ha): 9.0 | ECHORC herbicidal effect rating ([2]; 0.1250 kg/ha): 9.0 | ECHORC herbicidal effect rating ([2]; 0.2500 kg/ha): 9.0 | TRZAWR herbicidal rating ([3]; rate 0.0158 kg/ha): 3.5 | TRZAWR herbicidal rating ([3]; rate 0.0315 kg/ha): 4.0 | TRZAWR herbicidal rating ([3]; rate 0.0630 kg/ha): 4.5 | Preemergence herbicidal rating ORYSAT (ORYSAT (Rice, Tebonnet); rate 0.0156 kg/ha): 0.0 | Preemergence herbicidal rating ORYSAT (ORYSAT (Rice, Tebonnet); rate 0.0313 kg/ha): 0.0 | Preemergence herbicidal rating ORYSAT (ORYSAT (Rice, Tebonnet); rate 0.0625 kg/ha): 0.0 | Preemergence herbicidal rating ORYSAT (ORYSAT (Rice, Tebonnet); rate 0.1250 kg/ha): 1.0 | Preemergence herbicidal rating ORYSAT (ORYSAT (Rice, Tebonnet); rate 0.2500 kg/ha): 1.0 | IPOHE herbicidal rating ([4]; rate 0.0158 kg/ha): 9.0 | IPOHE herbicidal rating ([4]; rate 0.0315 kg/ha): 7.0 | IPOHE herbicidal rating ([4]; rate 0.0630 kg/ha): 9.0 | Herbicidal rating CYPIR (CYPIR (Rice Flatsedge); Rate 0.0313 kg/ha): 6.0 | Herbicidal rating CYPIR (CYPIR (Rice Flatsedge); Rate 0.0625 kg/ha): 6.0 | Herbicidal rating CYPIR (CYPIR (Rice Flatsedge); Rate 0.1250 kg/ha): 7.0 | Herbicidal rating CYPIR (CYPIR (Rice Flatsedge); Rate 0.2500 kg/ha): 9.0 | ABUTH herbicidal rating (ABUTH (Velvetleaf); rate 0.0158 kg/ha): 9.0 | ABUTH herbicidal rating (ABUTH (Velvetleaf); rate 0.0315 kg/ha): 9.0 | ABUTH herbicidal rating (ABUTH (Velvetleaf); rate 0.0630 kg/ha): 9.0 | Preemergence herbicidal rating CHEAL ([5]; rate 0.0156 kg/ha): 9.0 | Preemergence herbicidal rating CHEAL ([5]; rate 0.0313 kg/ha): 9.0 | Preemergence herbicidal rating CHEAL ([5]; rate 0.0625 kg/ha): 9.0 | Preemergence herbicidal rating CHEAL ([5]; rate 0.1250 kg/ha): 9.0 | Preemergence herbicidal rating CHEAL ([5]; rate 0.2500 kg/ha): 9.0 | Preemergence herbicidal rating TRZAWR ([6]; rate 0.0156 kg/ha): 0.0 | Preemergence herbicidal rating TRZAWR ([6]; rate 0.0313 kg/ha): 0.0 | Preemergence herbicidal rating TRZAWR ([6]; rate 0.0625 kg/ha): 0.0 | Preemergence herbicidal rating TRZAWR ([6]; rate 0.1250 kg/ha): 1.0 | Preemergence herbicidal rating TRZAWR ([6]; rate 0.2500 kg/ha): 2.0 | Preemergence herbicidal rating IPOHE ([7]; rate 0.0156 kg/ha): 0.0 | Preemergence herbicidal rating IPOHE ([7]; rate 0.0313 kg/ha): 0.0 | Preemergence herbicidal rating IPOHE ([7]; rate 0.0625 kg/ha): 0.0 | Preemergence herbicidal rating IPOHE ([7]; rate 0.1250 kg/ha): 2.0 | Preemergence herbicidal rating IPOHE ([7]; rate 0.2500 kg/ha): 7.0

Cn1c(C(F)(F)F)cc(=O)n(-c2cc(N=C3SCC(=O)N3[C@H](Cc3ccccc3)C(=O)O)c(Cl)cc2F)c1=O [Compound 69, α-Benzyl-2-{{2-chloro-5-[3,6-dihydro-3-methyl-2,6-dioxo-4-(trifluoromethyl)-1(2H)-pyrimidinyl]-4-fluorophenyl}imino}-4-oxo-3-thiazolidineacetic acid, D-]
Herbicidal rating ECHORC ([1]; Rate 0.0313 kg/ha): 0.0 | Herbicidal rating ECHORC ([1]; Rate 0.0625 kg/ha): 4.0 | Herbicidal rating ECHORC ([1]; Rate 0.1250 kg/ha): 5.0 | Herbicidal rating ECHORC ([1]; Rate 0.2500 kg/ha): 7.0 | Preemergence herbicidal rating SETVI (SETVI (Foxtail, Green); rate 0.0156 kg/ha): 0.0 | Preemergence herbicidal rating SETVI (SETVI (Foxtail, Green); rate 0.0313 kg/ha): 0.0 | Preemergence herbicidal rating SETVI (SETVI (Foxtail, Green); rate 0.0625 kg/ha): 0.0 | Preemergence herbicidal rating SETVI (SETVI (Foxtail, Green); rate 0.1250 kg/ha): 4.0 | Preemergence herbicidal rating SETVI (SETVI (Foxtail, Green); rate 0.2500 kg/ha): 7.0 | Preemergence herbicidal rating ECHCG (ECHCG (Barnyardgrass); rate 0.0156 kg/ha): 0.0 | Preemergence herbicidal rating ECHCG (ECHCG (Barnyardgrass); rate 0.0313 kg/ha): 0.0 | Preemergence herbicidal rating ECHCG (ECHCG (Barnyardgrass); rate 0.0625 kg/ha): 0.0 | Preemergence herbicidal rating ECHCG (ECHCG (Barnyardgrass); rate 0.1250 kg/ha): 1.0 | Preemergence herbicidal rating ECHCG (ECHCG (Barnyardgrass); rate 0.2500 kg/ha): 3.0 | ECHORC herbicidal effect rating ([2]; 0.0313 kg/ha): 0.0 | ECHORC herbicidal effect rating ([2]; 0.0625 kg/ha): 4.0 | ECHORC herbicidal effect rating ([2]; 0.1250 kg/ha): 5.0 | ECHORC herbicidal effect rating ([2]; 0.2500 kg/ha): 7.0 | TRZAWR herbicidal rating ([3]; rate 0.0158 kg/ha): 3.0 | TRZAWR herbicidal rating ([3]; rate 0.0315 kg/ha): 3.0 | TRZAWR herbicidal rating ([3]; rate 0.0630 kg/ha): 4.5 | Preemergence herbicidal rating ORYSAT (ORYSAT (Rice, Tebonnet); rate 0.0156 kg/ha): 0.0 | Preemergence herbicidal rating ORYSAT (ORYSAT (Rice, Tebonnet); rate 0.0313 kg/ha): 0.0 | Preemergence herbicidal rating ORYSAT (ORYSAT (Rice, Tebonnet); rate 0.0625 kg/ha): 0.0 | Preemergence herbicidal rating ORYSAT (ORYSAT (Rice, Tebonnet); rate 0.1250 kg/ha): 1.0 | Preemergence herbicidal rating ORYSAT (ORYSAT (Rice, Tebonnet); rate 0.2500 kg/ha): 1.0 | IPOHE herbicidal rating ([4]; rate 0.0158 kg/ha): 9.0 | IPOHE herbicidal rating ([4]; rate 0.0315 kg/ha): 9.0 | IPOHE herbicidal rating ([4]; rate 0.0630 kg/ha): 9.0 | Herbicidal rating CYPIR (CYPIR (Rice Flatsedge); Rate 0.0313 kg/ha): 3.0 | Herbicidal rating CYPIR (CYPIR (Rice Flatsedge); Rate 0.0625 kg/ha): 3.0 | Herbicidal rating CYPIR (CYPIR (Rice Flatsedge); Rate 0.1250 kg/ha): 3.0 | Herbicidal rating CYPIR (CYPIR (Rice Flatsedge); Rate 0.2500 kg/ha): 3.0 | ABUTH herbicidal rating (ABUTH (Velvetleaf); rate 0.0158 kg/ha): 9.0 | ABUTH herbicidal rating (ABUTH (Velvetleaf); rate 0.0315 kg/ha): 9.0 | ABUTH herbicidal rating (ABUTH (Velvetleaf); rate 0.0630 kg/ha): 9.0 | Preemergence herbicidal rating CHEAL ([5]; rate 0.0156 kg/ha): 9.0 | Preemergence herbicidal rating CHEAL ([5]; rate 0.0313 kg/ha): 9.0 | Preemergence herbicidal rating CHEAL ([5]; rate 0.0625 kg/ha): 9.0 | Preemergence herbicidal rating CHEAL ([5]; rate 0.1250 kg/ha): 9.0 | Preemergence herbicidal rating CHEAL ([5]; rate 0.2500 kg/ha): 9.0 | Preemergence herbicidal rating TRZAWR ([6]; rate 0.0156 kg/ha): 0.0 | Preemergence herbicidal rating TRZAWR ([6]; rate 0.0313 kg/ha): 0.0 | Preemergence herbicidal rating TRZAWR ([6]; rate 0.0625 kg/ha): 0.0 | Preemergence herbicidal rating TRZAWR ([6]; rate 0.1250 kg/ha): 1.0 | Preemergence herbicidal rating TRZAWR ([6]; rate 0.2500 kg/ha): 1.0 | Preemergence herbicidal rating IPOHE ([7]; rate 0.0313 kg/ha): 0.0 | Preemergence herbicidal rating IPOHE ([7]; rate 0.0625 kg/ha): 2.0 | Preemergence herbicidal rating IPOHE ([7]; rate 0.1250 kg/ha): 1.0 | Preemergence herbicidal rating IPOHE ([7]; rate 0.2500 kg/ha): 4.0
